# Data from patent US12624026B2, “Inhibitors of SARM1” (Disarm Therapeutics, Inc., priority 2018, dated 2026).
# What was measured:
# [1] = target: T1, SARM1 SAM-TIR (Homo sapiens, UniProt Q6SZW1); assay: biochemical; conditions: SAM-TIR lysate 5 μg/mL, 2 h pre-incubation, 5 μM NAD+, RapidFire MS of NAD+ and ADPR; read-out: SARM1 IC50;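 further: inhibition of SARM1 SAM-TIR NADase activity, i.e. NAD+ cleavage, using lysate of NRK1-HEK293T cells overexpressing the SAM-TIR fragment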
# T1 construct: a fragment of the SARM1 molecule encompassing the SAM and TIR domains; made in house; host or cells: NRK1-HEK293T cells, transiently transfected; the cleared, unpurified lysate was used as the enzyme
# T1 sequence (Q6SZW1 409-724 limits assumed): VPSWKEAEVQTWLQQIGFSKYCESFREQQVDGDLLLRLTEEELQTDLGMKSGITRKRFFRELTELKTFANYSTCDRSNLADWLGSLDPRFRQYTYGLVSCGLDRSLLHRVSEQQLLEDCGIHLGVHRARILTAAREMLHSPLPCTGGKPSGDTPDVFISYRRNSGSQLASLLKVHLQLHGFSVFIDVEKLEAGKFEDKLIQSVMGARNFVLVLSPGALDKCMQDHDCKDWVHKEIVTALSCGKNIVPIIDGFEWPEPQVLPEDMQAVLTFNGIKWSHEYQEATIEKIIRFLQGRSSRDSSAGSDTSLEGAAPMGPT
# [2] = tested on: mouse dorsal root ganglion (DRG) drop culture; assay: Axon degeneration assay in mouse DRG drop culture; assay type: cell-based; conditions: protection of axon fragmentation, axonal transection or chemotoxic stimuli
# Description: This Example illustrates an in vitro axon degeneration assay used to characterize compounds of Formula I or Formula II. This assay is used to test the efficacy of the compounds of Formula I or Formula II to prevent axonal degeneration in a mouse dorsal root ganglion (DRG) drop culture.
# Mouse DRG Drop culture: Mouse dorsal root ganglion neurons (DRGs) were dissected out of E12.5 CD1 mice (50 ganglion per embryo) and incubated with 0.5% Trypsin solution containing 0.02% EDTA (Gibco) at 37° C. for 15 min. The cells were then triturated by gentle pipetting and washed 3 times with DRG growth medium (Neurobasal medium (Gibco) containing 2% B27 (Invitrogen), 100 ng/ml 2.5S NGF (Harland Bioproducts), […] 5-fluoro-2′deoxyuridine (Sigma), penicillin, and streptomycin). Cells were suspended in the DRG growth medium. DRG drop cultures were created by spotting 5000 cells/well into the center of each well of a 96-well tissue culture plate coated with poly-D-Lysine (0.1 mg/ml; Sigma) and laminin ([…]; Invitrogen). Cells were allowed to adhere to the plates in a humidified tissue culture incubator (5% CO2) for 15 min and then DRG growth medium was gently added ([…]).
# Axon degeneration assay: Axonal degeneration was stimulated either by manual axonal transection using a scalpel blade, or chemotoxic stimuli. After an appropriate experimental time period, the DRG cultures were fixed in 1% PFA plus sucrose and kept in the fridge prior to imaging. Bright-field images of DRG axons and cell bodies were collected using the 20× water immersion lens of a Phenix automated confocal microscope (PerkinElmer) and quantitation of axonal performed using in-house developed scripts (Acapella, PerkinElmer).
IC50 [1],SMILES,IC50 [2]
1000 to 5000 nM,N#Cc1c(O)nsc1Nc1cccc(C(F)(F)F)c1 [Example 12],< 10 µM
1000 to 5000 nM,N#Cc1c(O)nsc1Nc1cccc2ncccc12 [Example 27],< 10 µM
1000 to 5000 nM,Cc1ccccc1Nc1snc(O)c1C#N [Example 7],10 to 30 µM
